Test results from ChEMBL document CHEMBL5346906, “Discovery of novel tranylcypromine-based derivatives as LSD1 inhibitors for gastric cancer treatment” (Eur J Med Chem, 2023).
The source made the active and inactive calls. The rule behind the calls is not given here.

How the values were obtained:
MGC-803 [1] = test: Induction of apoptosis in human MGC-803 cells assessed as early apoptotic cells at 8 micromol/L for 48 hrs by annexinV-FITC/PI staining based flow cytometric analysis (reference value: 2.92%); type: functional; settings: dose 8 µmol/L, at 8 µM
[2] = molecular target: T1, Lysine-specific histone demethylase 1A (Homo sapiens, UniProt O60341); test: Inhibition of LSD1 in human MGC-803 cells assessed as increase in methylation of H3K9 at 24 micromol/L; type: cell-based; settings: dose 24.0 µmol/L
MGC-803 [3] = test: Induction of cell differentiation in human MGC-803 cells assessed as increase in CD86 level at 16 micromol/L incubated for 48 hrs by flow cytometric analysis (reference value: 60%); type: functional; settings: dose 16 µmol/L, at 16 µM
MGC-803 [4] = test: Induction of cell differentiation in human MGC-803 cells assessed as increase in CD86 level at 24 micromol/L incubated for 48 hrs by flow cytometric analysis (reference value: 60%); type: functional; settings: dose 24 µmol/L, at 24 µM
[5] = molecular target: T1, Lysine-specific histone demethylase 1A; test: Inhibition of LSD1 in human MGC-803 cells assessed as increase in mono methylation of H3K9; type: cell-based; settings: dose 0-24 µmol/L
MGC-803 [6] = test: Induction of apoptosis in human MGC-803 cells assessed as viable cells at 8 micromol/L for 48 hrs by annexinV-FITC/PI staining based flow cytometric analysis (reference value: 95.54%); type: functional; settings: MGC-803, 48 h, dose 8 µmol/L, read-out: Activity
MGC-803 [7] = test: Induction of apoptosis in human MGC-803 cells assessed as necrotic cells at 16 micromol/L for 48 hrs by annexinV-FITC/PI staining based flow cytometric analysis (reference value: 0.22%); type: functional; settings: dose 16 µmol/L, at 16 µM
MGC-803 [8] = test: Induction of apoptosis in human MGC-803 cells assessed as viable cells at 24 micromol/L for 48 hrs by annexinV-FITC/PI staining based flow cytometric analysis (reference value: 95.54%); type: functional; settings: MGC-803, 48 h, dose 24 µmol/L, read-out: Activity
MGC-803 [9] = test: Induction of apoptosis in human MGC-803 cells assessed as decrease in anti-apoptotic c-IAP1 expression at 8 to 24 micromol/L; type: functional, cell-based; settings: dose 8-24 µmol/L
MGC-803 [10] = test: Induction of apoptosis in human MGC-803 cells assessed as morphological change in cell nucleus incubated at 8 to 24 micromol/L for 48 hrs measured by DAPI staining analysis; type: functional, cell-based; settings: dose 8-24 µmol/L
MGC-803 [11] = test: Induction of mitochondrial membrane potential depolarization in human MGC-803 assessed as necrotic cells measured at 16 micromol/L for 20 mins by JC-1 staining based flow cytometric analysis (reference value: 0.00%); type: functional; settings: dose 16 µmol/L, at 16 µM
MGC-803 [12] = test: Induction of mitochondrial membrane potential depolarization in human MGC-803 assessed as early apoptotic cells measured at 8 micromol/L for 20 mins by JC-1 staining based flow cytometric analysis (reference value: 4.52%); type: functional; settings: dose 8 µmol/L, at 8 µM
HCT-116 = test: Antiproliferative activity against human HCT-116 cells incubated for 48 hrs measured by MTT assay; type: functional, cell-based; settings: HCT-116, 48 h
MGC-803 [13] = test: Induction of mitochondrial membrane potential depolarization in human MGC-803 assessed as viable cells measured at 8 micromol/L for 20 mins by JC-1 staining based flow cytometric analysis (reference value: 0.40%); type: functional; settings: MGC-803, 20 min, dose 8 µmol/L, read-out: Activity
[14] = molecular target: T1, Lysine-specific histone demethylase 1A; test: Binding affinity to LSD1 in human MGC-803 cells assessed as thermal solubility measured at 100 uM preincubated for 30 mins and incubated at 42 to 60 degreeC for 3 mins followed by cooled for 180 secs cycle repeated 3 times by CETSA based Western blotting analysis; type: cell-based; settings: time 48.0 min
MGC-803 [15] = test: Induction of mitochondrial membrane potential depolarization in human MGC-803 assessed as early apoptotic cells measured at 24 micromol/L for 20 mins by JC-1 staining based flow cytometric analysis (reference value: 4.52%); type: functional; settings: dose 24 µmol/L, at 24 µM
MGC-803 [16] = test: Induction of apoptosis in human MGC-803 cells assessed as late apoptotic cells at 8 micromol/L for 48 hrs by annexinV-FITC/PI staining based flow cytometric analysis (reference value: 1.32%); type: functional; settings: dose 8 µmol/L, at 8 µM
MGC-803 [17] = test: Induction of apoptosis in human MGC-803 cells assessed as decrease in capase3 expression at 8 to 24 micromol/L; type: functional, cell-based; settings: dose 8-24 µmol/L
MGC-803 [18] = test: Induction of mitochondrial membrane potential depolarization in human MGC-803 assessed as viable cells measured at 24 micromol/L for 20 mins by JC-1 staining based flow cytometric analysis (reference value: 0.40%); type: functional; settings: MGC-803, 20 min, dose 24 µmol/L, read-out: Activity
MGC-803 [19] = test: Induction of apoptosis in human MGC-803 cells assessed as early apoptotic cells at 16 micromol/L for 48 hrs by annexinV-FITC/PI staining based flow cytometric analysis (reference value: 2.92%); type: functional; settings: dose 16 µmol/L, at 16 µM
MGC-803 [20] = test: Antiproliferative activity against human MGC-803 cells assessed as reduction in stemness of cells by measuring tumor ball diameter at 0 to 8 uM after 48 hrs measured after 10 days using 3D-spheroid assay; type: functional, cell-based; settings: dose 0-8 µM
MGC-803 [21] = test: Induction of apoptosis in human MGC-803 cells assessed as late apoptotic cells at 24 micromol/L for 48 hrs by annexinV-FITC/PI staining based flow cytometric analysis (reference value: 1.32%); type: functional; settings: dose 24 µmol/L, at 24 µM
MGC-803 [22] = test: Induction of cell differentiation in human MGC-803 cells assessed as increase in CD86 level at 8 micromol/L incubated for 48 hrs by flow cytometric analysis (reference value: 60%); type: functional; settings: dose 8 µmol/L, at 8 µM
[23] = molecular target: T1, Lysine-specific histone demethylase 1A; test: Inhibition of LSD1 in human MGC-803 cells assessed as increase in dimethylation of H3K9; type: cell-based; settings: dose 0-24 µmol/L
MGC-803 [24] = test: Induction of apoptosis in human MGC-803 cells assessed as morphological change in cell nucleus incubated at 8 to 24 micromol/L for 48 hrs measured by Giemsa staining based microscopic analysis; type: functional; settings: dose 8-24 µmol/L
MGC-803 [25] = test: Induction of mitochondrial membrane potential depolarization in human MGC-803 assessed as late apoptotic cells measured at 24 micromol/L for 20 mins by JC-1 staining based flow cytometric analysis (reference value: 94.98%); type: functional; settings: dose 24 µmol/L, at 24 µM
[26] = molecular target: T1, Lysine-specific histone demethylase 1A; test: Inhibition of LSD1 in human MGC-803 cells assessed as increase in dimethylation of H3K4; type: cell-based; settings: dose 0-24 µmol/L
MGC-803 [27] = test: Inhibition of cell migration in human MGC-803 cells assessed as scratch width decrease treated at 2 to 6 micromol/L for 24 to 48 hrs measured by wound healing assay; type: functional, cell-based; settings: dose 2-6 µmol/L, time 24-48 hrs
MGC-803 [28] = test: Induction of mitochondrial membrane potential depolarization in human MGC-803 assessed as necrotic cells measured at 24 micromol/L for 20 mins by JC-1 staining based flow cytometric analysis (reference value: 0.00%); type: functional; settings: dose 24 µmol/L, at 24 µM
MGC-803 [29] = test: Induction of apoptosis in human MGC-803 cells assessed as cell death incubated at 8 to 24 micromol/L for 48 hrs measured by Calcein-AM/PI staining analysis; type: functional, cell-based; settings: dose 8-24 µmol/L
MGC-803 [30] = test: Induction of mitochondrial membrane potential depolarization in human MGC-803 assessed as necrotic cells measured at 8 micromol/L for 20 mins by JC-1 staining based flow cytometric analysis (reference value: 0.00%); type: functional; settings: dose 8 µmol/L, at 8 µM
MGC-803 [31] = test: Induction of apoptosis in human MGC-803 cells assessed as late apoptotic cells at 16 micromol/L for 48 hrs by annexinV-FITC/PI staining based flow cytometric analysis (reference value: 1.32%); type: functional; settings: dose 16 µmol/L, at 16 µM

- inhibition [2]: Active
- inhibition [5]: Dose-Dependent Effect
- IC50 (HCT-116): 16.3 µM
- Activity [14]: Active
- inhibition [23]: Dose-Dependent Effect
- inhibition [26]: Dose-Dependent Effect
Structure (SMILES): O=C(c1cccc(CN[C@@H]2C[C@H]2c2ccc(F)c(F)c2)c1)N1CCN(c2ccc(Cl)c(Cl)c2)CC1
- Activity (MGC-803 [1]): 5.92%
- Activity (MGC-803 [3]): 64.32%
- Activity (MGC-803 [4]): 74.6%
- viability at 8 µM (MGC-803 [6]): 91%
- Activity (MGC-803 [7]): 0.35%
- viability at 24 µM (MGC-803 [8]): 51.8%
- Activity (MGC-803 [9]): Active
- Activity (MGC-803 [10]): Active
- Activity (MGC-803 [11]): 0.02%
- Activity (MGC-803 [12]): 6.3%
- viability at 8 µM (MGC-803 [13]): 0.52%
- Activity (MGC-803 [15]): 29.22%
- Activity (MGC-803 [16]): 2.76%
- Activity (MGC-803 [17]): Active
- viability at 24 µM (MGC-803 [18]): 1.28%
- Activity (MGC-803 [19]): 31.69%
- Activity (MGC-803 [20]): Active
- Activity (MGC-803 [21]): 9.98%
- Activity (MGC-803 [22]): 64.13%
- Activity (MGC-803 [24]): Active
- Activity (MGC-803 [25]): 69.38%
- inhibition (MGC-803 [27]): Active
- Activity (MGC-803 [28]): 0.12%
- Activity (MGC-803 [29]): Active
- Activity (MGC-803 [30]): 0%
- Activity (MGC-803 [31]): 10.43%
